# From BindingDB's records for patent US20240270732 (Chengdu Biobel Biotechnology Co., 2024)
# Biological target: T1, Receptor-interacting serine/threonine-protein kinase 1 (Homo sapiens, UniProt Q13546)
# T1 sequence (Q13546 whole entry): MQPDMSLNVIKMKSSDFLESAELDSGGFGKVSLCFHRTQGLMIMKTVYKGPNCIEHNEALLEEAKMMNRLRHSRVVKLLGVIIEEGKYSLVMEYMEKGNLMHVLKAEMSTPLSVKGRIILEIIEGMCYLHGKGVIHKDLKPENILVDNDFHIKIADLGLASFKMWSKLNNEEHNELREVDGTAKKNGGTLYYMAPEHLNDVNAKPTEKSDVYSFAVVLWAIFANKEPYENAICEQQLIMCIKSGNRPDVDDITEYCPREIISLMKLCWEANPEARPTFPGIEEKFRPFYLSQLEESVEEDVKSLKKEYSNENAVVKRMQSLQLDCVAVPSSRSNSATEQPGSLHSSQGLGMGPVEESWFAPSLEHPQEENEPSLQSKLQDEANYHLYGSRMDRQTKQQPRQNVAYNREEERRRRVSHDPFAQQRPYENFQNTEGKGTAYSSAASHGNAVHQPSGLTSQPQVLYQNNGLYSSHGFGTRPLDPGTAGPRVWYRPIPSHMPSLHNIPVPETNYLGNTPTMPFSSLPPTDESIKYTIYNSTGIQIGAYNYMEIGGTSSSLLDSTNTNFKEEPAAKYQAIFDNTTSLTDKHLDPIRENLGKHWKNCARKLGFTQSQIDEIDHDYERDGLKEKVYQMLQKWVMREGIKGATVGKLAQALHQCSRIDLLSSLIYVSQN
# Assay: Inhibitory Activity Assay
# Description: The compound of the present invention and the control compound were dissolved in the assay buffer (50 mM Hepes pH 7.5, 50 mM NaCl, 30 mM MgCl2, 1 mM DTT, 0.02% CHAPS, 0.5 mg/mL BSA), and diluted in a ratio of 1:1.5 using a 22-point titration (high concentration 2 μM), and then added to a 384-well plate. […] After completion of the reaction, 5 μL of ADP-Glo reagent containing 0.02% CHAPS was added to each well and incubated at room temperature for 1 h to terminate the kinase reaction and use up all remaining ATP. Then, 5 μL of ADP-Glo detection solution containing 0.02% CHAPS was added to each well and incubated at room temperature for 30 min to measure the emittance intensity.
row,Structure (SMILES),IC50
1,"C#CCN1CCN(CC#Cc2ccc3c(c2)N(C)C(=O)[C@@H](NC(=O)c2n[nH]c(Cc4cccnc4)n2)[C@@H](C)O3)CC1 [US20240270732, Compound I-67]",14.6 nM
2,"C#CCN1CCN(CC#Cc2ccc3c(c2)N(C)C(=O)[C@@H](NC(=O)c2n[nH]c(Cc4cccc(N)c4)n2)[C@@H](C)O3)CC1 [US20240270732, Compound I-71]",23.9 nM
3,"C#CCN1CCN(CC#Cc2ccc3c(c2)N(C)C(=O)[C@@H](NC(=O)c2ncn(Cc4ccccc4)n2)CO3)CC1 [US20240270732, Compound I-29]",2.88 nM
4,"C[C@H]1Oc2ccc(C#CCN3CCN(CC#Cc4ccc5c(c4)N(C)C(=O)[C@@H](NC(=O)c4n[nH]c(Cc6ccccc6)n4)CO5)CC3)cc2N(C)C(=O)[C@H]1NC(=O)c1ncn(Cc2ccccc2)n1 [US20240270732, Compound I-12]",2.75 nM
5,"COCCOCCOCCOCCOCC#Cc1ccc2c(c1)N(C)C(=O)[C@@H](NC(=O)c1n[nH]c(Cc3ccccc3)n1)CO2 [US20240270732, Compound I-100]",1.47 nM
6,"C#CCN1CCN(CC#Cc2ccc3c(c2)N(C)C(=O)[C@@H](NC(=O)c2cn(Cc4ccccc4)nn2)[C@@H](C)O3)CC1 [US20240270732, Compound I-53]",15.1 nM
7,"C[C@H]1Oc2ccc(C#CCN3CCN(CC#Cc4ccc5c(c4)N(C)C(=O)[C@@H](NC(=O)c4cnn(Cc6ccccc6)c4)[C@@H](C)O5)CC3)cc2N(C)C(=O)[C@H]1NC(=O)c1cnn(Cc2ccccc2)c1 [US20240270732, Compound I-48]",13.3 nM
8,"C[C@H]1Oc2ccc(C#CCOCCOCCOCCOCCOCC#CC#CCOCCOCCOCCOCCOCC#Cc3ccc4c(c3)N(C)C(=O)[C@@H](NC(=O)c3n[nH]c(Cc5ccccc5)n3)[C@@H](C)O4)cc2N(C)C(=O)[C@H]1NC(=O)c1n[nH]c(Cc2ccccc2)n1 [US20240270732, Compound I-87]",6.32 nM
9,"C#CCN1CCN(CC#Cc2ccc3c(c2)N(C)C(=O)[C@@H](NC(=O)c2ncn(Cc4ccccc4)n2)[C@@H](C)O3)CC1 [US20240270732, Compound I-37]",4.17 nM
10,"C[C@H]1Oc2ccc(C#CCN3CCN(CC#Cc4ccc5c(c4)N(C)C(=O)[C@@H](NC(=O)c4cc(Cc6ccccc6)on4)[C@@H](C)O5)CC3)cc2N(C)C(=O)[C@H]1NC(=O)c1cc(Cc2ccccc2)on1 [US20240270732, Compound I-46]",10.8 nM
11,"C[C@H]1Oc2ccc(C#CCCO)cc2N(C)C(=O)[C@H]1NC(=O)c1ncn(Cc2ccccc2)n1 [US20240270732, Compound I-106]",6.53 nM
12,"CN1C(=O)[C@@H](NC(=O)c2ncn(Cc3ccccc3)n2)COc2ccc(C#CCOCCOCCOCCOCCOCC#Cc3ccc4c(c3)N(C)C(=O)[C@@H](NC(=O)c3ncn(Cc5ccccc5)n3)CO4)cc21 [US20240270732, Compound I-85-1]",7.49 nM
13,"COCCOCCOCCOCCOCC#Cc1ccc2c(c1)N(C)C(=O)[C@@H](NC(=O)c1n[nH]c(Cc3ccccc3)n1)[C@@H](C)O2 [US20240270732, Compound I-99]",2.39 nM
14,"C[C@H]1Oc2ccc(C#CCN3CCN(CC#Cc4ccc5c(c4)NC(=O)[C@@H](NC(=O)c4n[nH]c(Cc6ccccc6)n4)[C@@H](C)O5)CC3)cc2NC(=O)[C@H]1NC(=O)c1n[nH]c(Cc2ccccc2)n1 [US20240270732, Compound I-17]",3.56 nM
15,"C[C@H]1Oc2ccc(C#CCN3CCN(CC#Cc4ccc5c(c4)N(C)C(=O)[C@@H](NC(=O)c4ncn(Cc6ccccc6)n4)CO5)CC3)cc2N(C)C(=O)[C@H]1NC(=O)c1n[nH]c(Cc2ccccc2)n1 [US20240270732, Compound I-5]",3.35 nM
16,"C#CCN1CCN(CC#Cc2ccc3c(c2)N(C)C(=O)[C@@H](NC(=O)c2n[nH]c(Cc4ccccc4)n2)[C@@H](C)O3)CC1 [US20240270732, Compound I-14]",4.79 nM
17,"C[C@H]1Oc2ccc(C#CCN3CCN(CC#CC#CCN4CCN(CC#Cc5ccc6c(c5)N(C)C(=O)[C@@H](NC(=O)c5ncn(Cc7ccccc7)n5)[C@@H](C)O6)CC4)CC3)cc2N(C)C(=O)[C@H]1NC(=O)c1ncn(Cc2ccccc2)n1 [US20240270732, Compound I-93]",5.73 nM
18,"C[C@H]1Oc2ccc(C#CCN3CCN(CC#Cc4ccc5c(c4)N(C)C(=O)[C@@H](NC(=O)c4nnn(Cc6ccccc6)n4)[C@@H](C)O5)CC3)cc2N(C)C(=O)[C@H]1NC(=O)c1n[nH]c(Cc2ccccc2)n1 [US20240270732, Compound I-6]",11.2 nM

row,Structure (SMILES),IC50
1,"C[C@H]1Oc2ccc(C#CCN3CCN(CC#Cc4ccc5c(c4)N(C)C(=O)[C@@H](NC(=O)c4cn(Cc6ccccc6)cn4)[C@@H](C)O5)CC3)cc2N(C)C(=O)[C@H]1NC(=O)c1cn(Cc2ccccc2)cn1 [US20240270732, Compound I-60]",9.91 nM
2,"C#CCN1CCN(CC#Cc2ccc3c(c2)N(C)C(=O)[C@@H](NC(=O)c2nnc(Cc4ccccc4)o2)[C@@H](C)O3)CC1 [US20240270732, Compound I-49]",16.2 nM
3,"C#CCN1CCN(CC#Cc2ccc3c(c2)N(C)C(=O)[C@@H](NC(=O)c2cn(Cc4ccccc4)cn2)[C@@H](C)O3)CC1 [US20240270732, Compound I-59]",10.2 nM
4,"C[C@H]1Oc2ccc(C#CCN3CCN(CC#Cc4ccc5c(c4)N(C)C(=O)[C@@H](NC(=O)c4n[nH]c(Cc6ccccc6)n4)[C@@H](C)O5)CC3)cc2N(C)C(=O)[C@H]1NC(=O)c1cn(Cc2ccccc2)cn1 [US20240270732, Compound I-8]",9.5 nM
5,"COCCOCCOCCOCCOCC#Cc1ccc2c(c1)N(C)C(=O)[C@@H](NC(=O)c1ncn(Cc3ccccc3)n1)[C@@H](C)O2 [US20240270732, Compound I-101]",2.54 nM
6,"C[C@H]1Oc2ccc(CCCN3CCN(CCCc4ccc5c(c4)N(C)C(=O)[C@@H](NC(=O)c4ncn(Cc6ccccc6)n4)[C@@H](C)O5)CC3)cc2N(C)C(=O)[C@H]1NC(=O)c1ncn(Cc2ccccc2)n1 [US20240270732, Compound I-122]",3.18 nM
7,"C[C@H]1Oc2ccc(CCCN3CCN(CCCc4ccc5c(c4)N(C)C(=O)[C@@H](NC(=O)c4n[nH]c(Cc6ccccc6)n4)[C@@H](C)O5)CC3)cc2N(C)C(=O)[C@H]1NC(=O)c1n[nH]c(Cc2ccccc2)n1 [US20240270732, Compound I-124]",4.84 nM
8,"CN1C(=O)[C@@H](NC(=O)c2ncn(Cc3ccccc3)n2)COc2ccc(CCCN3CCN(CCCc4ccc5c(c4)N(C)C(=O)[C@@H](NC(=O)c4ncn(Cc6ccccc6)n4)CO5)CC3)cc21 [US20240270732, Compound I-121]",4.92 nM
9,"CN1C(=O)[C@@H](NC(=O)c2n[nH]c(Cc3ccccc3)n2)COc2ccc(C#CCOCCOCCOCCOCCOCC#Cc3ccc4c(c3)N(C)C(=O)[C@@H](NC(=O)c3n[nH]c(Cc5ccccc5)n3)CO4)cc21 [US20240270732, Compound I-82-1]",6.6 nM
10,"C#CCN1CCN(CC#Cc2ccc3c(c2)N(C)C(=O)[C@@H](NC(=O)c2ncn(Cc4cccc(O)c4)n2)[C@@H](C)O3)CC1 [US20240270732, Compound I-75]",21 nM
11,"C[C@H]1Oc2ccc(C#Cc3cccc(N)c3)cc2N(C)C(=O)[C@H]1NC(=O)c1ncn(Cc2ccccc2)n1 [US20240270732, Compound I-118]",13.8 nM
12,"CN1C(=O)[C@@H](NC(=O)c2n[nH]c(Cc3ccccc3)n2)COc2ccc(CCCN3CCN(CCCc4ccc5c(c4)N(C)C(=O)[C@@H](NC(=O)c4n[nH]c(Cc6ccccc6)n4)CO5)CC3)cc21 [US20240270732, Compound I-123]",3.17 nM
13,"C[C@@H]1Oc2ccc(C#CCN3CCN(CC#Cc4ccc5c(c4)N(C)C(=O)[C@@H](NC(=O)c4cn(Cc6ccccc6)cn4)[C@H](C)O5)CC3)cc2N(C)C(=O)[C@H]1NC(=O)c1cn(Cc2ccccc2)cn1 [US20240270732, Compound I-64]",62.2 nM
14,"C[C@H]1Oc2ccc(C#CCN3CCN(CC#Cc4ccc5c(c4)N(C)C(=O)[C@@H](NC(=O)c4ncn(Cc6ccccc6)n4)CO5)CC3)cc2N(C)C(=O)[C@H]1NC(=O)c1cn(Cc2ccccc2)cn1 [US20240270732, Compound I-33]",3.54 nM
15,"C#CCN1CCN(CC#Cc2ccc3c(c2)N(C)C(=O)[C@@H](NC(=O)c2cn(Cc4ccccc4)cn2)CO3)CC1 [US20240270732, Compound I-61]",8.43 nM
16,"C[C@H]1Oc2ccc(C#CCN3CCN(CC#Cc4ccc5c(c4)N(C)C(=O)[C@@H](NC(=O)c4ncn(Cc6cccc(N)c6)n4)[C@@H](C)O5)CC3)cc2N(C)C(=O)[C@H]1NC(=O)c1ncn(Cc2cccc(N)c2)n1 [US20240270732, Compound I-78]",23.1 nM
17,"C#CCN1CCN(CC#Cc2ccc3c(c2)N(C)C(=O)[C@@H](NC(=O)c2ncn(Cc4cccnc4)n2)[C@@H](C)O3)CC1 [US20240270732, Compound I-73]",19.1 nM
18,"C[C@H]1Oc2ccc(C#CCN3CCN(CC#Cc4ccc5c(c4)N(C)C(=O)[C@@H](NC(=O)c4nnn(Cc6ccccc6)n4)CO5)CC3)cc2N(C)C(=O)[C@H]1NC(=O)c1ncn(Cc2ccccc2)n1 [US20240270732, Compound I-26]",3.73 nM
